We go through 17 compounds from patent US7659270B2, “Hepatitis C virus inhibitors” (Bristol-Myers Squibb Company, priority 2006, dated 2010).

Each structure is given as a SMILES string. Read-outs that look alike come from different tables or passages of the source. Bounds are passed on as bounds.

The assay has as its system HCV 1b-377-neo replicon cells. As to the kind of experiment: HCV replicon assay (HCV 1b-377-neo replicon cells). Set-up: EC50 range against HCV 1b (Range): scale not given here. It counts as cell-based, Hepatitis C virus genotype 1b. The method, then:
An HCV Replion assay was utilized in the present disclosure, and was prepared, conducted and validated as described in commonly owned PCT/US2006/022197 and in O'Boyle et. al. Antimicrob Agents Chemother. April 2005;49(4): 1346-53.
HCV 1b-377-neo replicon cells were used to test the currently described compound series as well as cells resistant to compound A due to a Y2065H mutation in NS5A (described in application PCT/US2006/022197). The compounds tested were determined to have more than 10-fold less inhibitory activity on cells resistant to compound A than wild-type cells indicating a related mechanism of action between the two compound series. Thus, the compounds of the present disclosure can be effective to inhibit the function of the HCV NS5A protein and are understood to be as effective in combinations as previously described in application PCT/US2006/022197 and commonly owned WO/04014852. Further, the compounds of the present disclosure can be effective against the HCV 1b genotype. It should also be understood that the compounds of the present disclosure can inhibit multiple genotypes of HCV. […] In one embodiment compounds of the present disclosure are active against the 1a, 1b, 2a, 2b, 3a, 4a, and 5a genotypes.

Where [1] appears, read: Hepatitis C virus, read-out: EC50 range against HCV 1b (Range).

Consider `COC(=O)N[C@@H](C(=O)N1CCC[C@H]1c1ncc(-c2ccc(-c3ccc(-c4cnc([C@@H]5CCCN5C(=O)[C@H](NC(=O)OC)c5ccccc5)[nH]4)nn3)cc2)[nH]1)c1ccccc1` [Example 152j-10, methyl ((1R)-2-((2S)-2-(5-(6-(4-(2-((2S)-1-((2R)-2-((methoxycarbonyl)a-mino)-2-phenylacetyl)-2-pyrrolidinyl)-1H-imidazol-5-yl)phenyl)-3-pyridazinyl)-1H-imidazol-2-yl)-1-pyrrolidinyl)-2-oxo-1-phenylethyl) carba-mate], for which the EC50 under setting [1] lay within 1000 to 99000 pM. As for `CN(C)[C@@H](C(=O)N1CCC[C@H]1c1nc(-c2ccc(-c3ccc(-c4cn(C)c([C@@H]5CCCN5C(=O)[C@@H](c5ccccc5)N(C)C)n4)cc3)cc2)cn1C)c1ccccc1` (single isomer, unassigned) [Example 151 isomer 2], the EC50 (listed as 151 isomer 2, read-out: EC50 range against HCV 1b (Range)) is 100000 to 999000 pM. On to `COC(=O)N[C@@H](C(=O)N1CCC[C@H]1c1ncc(-c2ccc(-c3ccc(-c4cnc([C@@H]5CCCN5C(=O)[C@H](NC(=O)OC)c5ccccc5)[nH]4)nn3)nn2)[nH]1)c1ccccc1` [Example 153c-2, dimethyl (3,3′-bipyrida-zine-6,6′-diylbis(1H-imi-dazole-5,2-diyl(2S)-2,1-pyrrolidine-diyl((1R)-2-oxo-1-phenyl-2,1-ethane-diyl)))biscarba-mate], for which, under setting [1], the EC50 fell in the range of 1000 to 99000 pM. `COC(=O)N[C@@H](C(=O)N1CCC[C@H]1c1ncc(-c2ccc(-c3ncc(-c4cnc([C@@H]5CCCN5C(=O)[C@@H](c5ccccc5)N5CCCCC5)[nH]4)cn3)cc2)[nH]1)c1ccccc1` [Example 152l-3, methyl ((1R)-2-oxo-1-phe-nyl-2-((2S)-2-(4-(4-(5-(2-((2S)-1-((2R)-2-phenyl-2-(1-piperidinyl)acetyl)-2-pyrrolidinyl)-1H-imidazol-5-yl)-2-pyrimi-dinyl)phenyl)-1H-imidazol-2-yl)-1-pyrroli-dinyl)ethyl)carba-mate]: under setting [1], the EC50 fell in the range of 10 to 999 pM. Regarding `COC(=O)N[C@H](C(=O)N1CCC[C@H]1c1ncc(-c2ccc(-c3ccc(-c4cnc([C@@H]5CCCN5C(=O)[C@@H](NC(=O)OC)C(C)C)[nH]4)cc3C(=O)O)cc2)[nH]1)C(C)C` [Example M114, 4,4′-bis(2-((2S)-1-(N-(methoxycarbonyl)-L-valyl)-2-pyrrolidinyl)-1H-imidazol-5-yl)-2-biphenylcarboxylic acid], the “EC50 range against HCV 1b (Range)” value is “>A”. `CCN(CC)[C@@H](C(=O)N1CCC[C@H]1c1ncc(-c2cnc(-c3ccc(-c4[nH]c([C@@H]5CCCN5C(=O)[C@@H](c5ccccc5)N(CC)CC)nc4C(F)(F)F)cc3)nc2)[nH]1)c1ccccc1` [Example J47, (1R)-2-((2S)-2-(5-(4-(5-(2-((2S)-1-((2R)-2-(diethylamino)-2-phenylacetyl)-2-pyrrolidinyl)-1H-imidazol-5-yl)-2-pyrimi-dinyl)phenyl)-4-(trifluoromethyl)-1H-imida-zol-2-yl)-1-pyrrolidinyl)-N,N-dieth-yl-2-oxo-1-phenylethanamine]: under setting [1], the EC50 lay within 10 to 999 pM. With `C[C@H](NC(=O)[C@@H](c1ccccc1)N(C)C)c1ncc(-c2cnc(-c3ccc(-c4cnc([C@@H]5CCCN5C(=O)[C@@H](c5ccccc5)N(C)C)[nH]4)cc3)cn2)[nH]1` [Example 152j-18, (2R)-2-(dimethylamino)-N-((1S)-1-(5-(5-(4-(2-((2S)-1-((2R)-2-(dimethylamino)-2-phenylacetyl)-2-pyrrolidinyl)-1H-imidazol-5-yl)phenyl)-2-pyrazinyl)-1H-imidazol-2-yl)ethyl)-2-phenylacetamide], the 50% effective concentration (EC50) under setting [1] lay within 10 to 999 pM. The same measure, in the same setting: the result for `COC(=O)N[C@@H](C)C(=O)N(C)[C@@H](C)c1ncc(-c2ccc(-c3ccc(-c4[nH]c([C@@H]5CCCN5C(=O)[C@H](C)NC(=O)OC)nc4C(F)(F)F)cc3)cc2)[nH]1` [Example J42.a, methyl ((1S)-2-((2S)-2-(5-(4′-(2-((1S)-1-((N-(methoxy-carbonyl)-L-alanyl)(meth-yl)ami-no)ethyl)-1H-imidazol-5-yl)-4-biphenylyl)-4-(trifluoromethyl)-1H-imida-zol-2-yl)-1-pyrrolidinyl)-1-methyl-2-oxoeth-yl)carbamate] reads 10 to 999 pM; that for `CN(C)[C@@H](C(=O)N1CCC[C@H]1c1ncc(-c2ccc(-c3ccc(-c4cnc([C@@H]5CCCN5C(=O)[C@@H](c5ccccc5)N(C)C)[nH]4)cc3C(F)(F)F)cc2)[nH]1)c1ccccc1` [Example 130, (1R,1′R)-2,2′-((2-(trifluoromethyl)-4,4′-biphenyldiyl)bis(1H-imidazole-5,2-diyl(2S)-2,1-pyrrolidinediyl))bis(N,N-dimethyl-2-oxo-1-phenylethanamine)], 10 to 999 pM. The same measure, in the same setting: next, `Cc1cc(-c2cnc([C@@H]3CCCN3C(=O)[C@@H](c3ccccc3)N(C)C)[nH]2)ccc1-c1ccc(-c2cnc([C@@H]3CCCN3C(=O)[C@@H](c3ccccc3)N(C)C)[nH]2)cn1` [Example 136, (1R)-2-((2S)-2-(5-(6-(4-(2-((2S)-1-((2R)-2-(dimethylamino)-2-phenylacetyl)-2-pyrrolidinyl)-1H-imidazol-5-yl)-2-methylphenyl)-3-pyridinyl)-1H-imidazol-2-yl)-1-pyrrolidinyl)-N,N-dimethyl-2-oxo-1-phenylethanamine]: 10 to 999 pM. Turning to `COC(=O)N[C@@H](C(=O)N1CCC[C@H]1c1ncc(-c2ccc(-c3ccc(-c4cnc([C@@H]5CCCN5C(=O)[C@@H](c5ccccc5)N(C)C)[nH]4)cc3C)cc2)[nH]1)c1ccccc1` [Example 126, methyl ((1R)-2-((2S)-2-(5-(4′-(2-((2S)-1-((2R)-2-(dimethylamino)-2-phenylacetyl)-2-pyrolidinyl)-1H-imidazol-5-yl)-2′-methyl-4-biphenylyl)-1H-imidazol-2-yl)-1-pyrrolidinyl)-2-oxo-1-phenylethyl)carbamate], the EC50 (read-out: EC50 range against HCV 1b (Range)) was in the range of 10 to 999 pM.

Take `CN(C)[C@@H](C(=O)N1CCC[C@H]1c1ncc(-c2ccc(-c3ccc(-c4cnc([C@@H]5CCCN5C(=O)[C@@H](c5ccccc5)N(C)C)[nH]4)nn3)cc2)[nH]1)c1ccccc1` [Example 152j-9, (1R)-2-((2S)-2-(5-(6-(4-(2-((2S)-1-((2R)-2-(dimethylamino)-2-phenylacetyl)-2-pyrrolidinyl)-1H-imidazol-5-yl)phenyl)-3-pyridazinyl)-1H-imidazol-2-yl)-1-pyrrolidinyl)-N,N-dimethyl-2-oxo-1-phenylethanamine]: the EC50 under setting [1] lay in the range of 1000 to 99000 pM. As for `COC(=O)N[C@@H](C)C(=O)N1CCC[C@H]1c1nc(-c2cnc(-c3ccc(-c4cnc([C@@H]5CCCN5C(=O)[C@H](C)NC(=O)OC)[nH]4)cc3)nc2)c[nH]1` [Example D73, methyl ((1S)-2-((2S)-2-(5-(4-(5-(2-((2S)-1-(N-(methoxy-carbonyl)-L-alanyl)-2-pyrroli-dinyl)-1H-imida-zol-5-yl)-2-pyrimi-dinyl)phenyl)-1H-imidazol-2-yl)-1-pyrroli-dinyl)-1-methyl-2-oxoeth-yl)carbamate], under setting [1], the EC50 lay in the range of 10 to 999 pM. Turning to `COC(=O)N[C@@H](C(=O)N1CCC[C@H]1c1ncc(-c2ccc(-c3ccc(-c4cnc([C@@H]5CCCN5C(=O)[C@@H](c5ccccc5)N(C)C)[nH]4)cn3)cc2)[nH]1)c1ccccc1` [Example 140, methyl((1R)-2-((2S)-2-(5-(4-(5-(2-((2S)-1-((2R)-2-(dimethylamino)-2-phenylacetyl)-2-pyrrolidinyl)-1H-imidazol-5-yl)-2-pyridinyl)phenyl)-1H-imidazol-2-yl)-1-pyrrolidinyl)-2-oxo-1-phenylethyl)carbamate], the EC50 under setting [1] was in the range of 10 to 999 pM. Take `CO[C@@H](C(=O)N1CCC[C@H]1c1ncc(-c2ccc(-c3ccc(-c4cnc([C@@H]5CCCN5C(=O)[C@H](OC)c5ccccc5)[nH]4)cn3)cc2)[nH]1)c1ccccc1` [Example 135, 5-(2-((2S)-1-((2R)-2-methoxy-2-phenylacetyl)-2-pyrrolidinyl)-1H-imidazol-5-yl)-2-(4-(2-((2S)-1-((2R)-2-methoxy-2-phenylacetyl)-2-pyrrolidinyl)-1H-imidazol-5-yl)phenyl)pyridine]: the EC50 under setting [1] is 10 to 999 pM. `COC(=O)N[C@@H](C(=O)N1CCC[C@H]1c1ncc(-c2ccc(-c3ncc(-c4cnc([C@@H]5CCCN5C(=O)[C@H](NC(=O)OC)c5ccccc5)[nH]4)cn3)cc2)[nH]1)c1ccccc1` [Example 152j-2, methyl ((1R)-2-((2S)-2-(5-(2-(4-(2-((2S)-1-((2R)-2-((methoxycarbonyl)a-mino)-2-phenylacetyl)-2-pyrrolidinyl)-1H-imidazol-5-yl)phenyl)-5-pyrimidinyl)-1H-imidazol-2-yl)-1-pyrrolidinyl)-2-oxo-1-phenylethyl)carba-mate]: the 50% effective concentration (EC50) under setting [1] lay within 10 to 999 pM. On the same count and under the same terms, the result for `CN(C)[C@@H](C(=O)N1CCC[C@H]1c1ncc(-c2ccc(-c3ccc(-c4cnc([C@@H]5CCCN5C(=O)[C@@H](c5ccccc5)N(C)C)[nH]4)nc3)cc2)[nH]1)c1ccccc1` [Example 146, (1R)-2-((2S)-2-(5-(5-(4-(2-((2S)-1-((2R)-2-(dimethylamino)-2-phenylacetyl)-2-pyrrolidinyl)-1H-imidazol-5-yl)phenyl)-2-pyridinyl)-1H-imidazol-2-yl)-1-pyrrolidinyl)-N,N-dimethyl-2-oxo-1-phenylethanamine] reads 10 to 999 pM.
